The source of these data is PubChem BioAssay AID743396 (Broad Institute, 2014).

Active and inactive are the calls of the source.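 Rule for the calls: active = fitted curve reaches a 40% rise in fluorescent cells at or below the top valid dose; inactive = opposite-direction effect, or the rest.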

One test can be described thus: compound fluorescence in GFP channel, mTEFS cells – imaging, mTEFS fibroblasts, cherry-pick, artefact control for X-chromosome reactivation project, dose response (AID 743396).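 Note: raw share of Hoechst-counted cells scored GFP positive without control normalization.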 Particulars: mTEFS fibroblasts autofluorescence, GFP-channel imaging, 3 days; at 19.5 µM (top of the series).
As to `COC(=O)Cn1cc(/C=C2\C(=O)NC(=O)N(c3ccc(OC)cc3)C2=O)c2ccccc21`, the % fluorescent cells increase was 0.304% (inactive). In the case of `Cc1ccc2[nH]c(=S)n(-c3cccnc3)c(=O)c2c1`, the % fluorescent cells increase was 0.016% (inactive).

Staying with this test, now noted: mTEFS fibroblasts autofluorescence, GFP-channel imaging, 3 days; at 19.5 µM (top of the series); cells pretreated with 5-aza-dC.
On to `CC(C)CC(=O)Nc1c2c(nn1-c1ccc(F)cc1)CSC2`, for which the % fluorescent cells increase was 0.007% (inactive). Consider `CCOC(=O)C1CCN(c2c(NCc3ccc(C(=O)NC4CCCC4)cc3)c(=O)c2=O)CC1`, for which the % fluorescent cells increase is 0% (inactive). With `COC(C(=O)NCc1ccc(C)cc1)c1ccccc1` (stereo unspecified), the % fluorescent cells increase was 0% (inactive).

With `O=C(CC1C(=O)Nc2ccccc2N1CC(=O)N1CCCC1)Nc1ccc(Br)cc1` (stereo unspecified), the % fluorescent cells increase is 0% (inactive). The same measure, in the same setting: in the case of `Cc1noc(C)c1NC(=O)N[C@H]1CC[C@H](CC(=O)N2CCN(C)CC2)O[C@H]1CO` it was 0.024% (inactive); in that of `COc1ccc(NC(=O)N(C)[C@H]2C[C@H]3c4[nH]c5ccc(-c6ccc(OC)cc6)cc5c4CCN3C(=O)[C@H]2[C@H](C)O)cc1`, 0.507% (inactive). As to `Cc1ccc(Cn2cc(/C=N/Nc3ccc([N+](=O)[O-])cn3)c3ccccc32)cc1`, the % fluorescent cells increase is 0.941% (inactive).

Take `COCCCn1c(C)cc(C(=O)COC(=O)CCc2nc3ccccc3c(=O)[nH]2)c1C`: the % fluorescent cells increase is 3.52% (inactive). The same measure, in the same setting: in the case of `COc1ccccc1C(=O)Nc1nnc(S(=O)(=O)N2CCCCCC2)s1` it was 0.055% (inactive); in that of `COc1ccc(-c2ccc(C(=O)NCc3cccs3)c3occc23)c(C)c1`, 0.07% (inactive); in that of `COc1cc(/C=C/C(=O)c2ccc3c(c2)OCCO3)cc(Br)c1OCC(=O)N(C)C`, 7.79% (inactive). Still for that read-out and setting: then `CCSc1nnc(NC(=O)c2cc(OC)c(OC)c(OC)c2)s1`, with 0% (inactive); and `CCNC(=O)C[C@@H]1CC[C@H]2[C@@H](COC[C@@H](O)CN2C(=O)C2CCCC2)O1`, with 0.746% (inactive); and `COc1ccc(-n2nc(C#N)c(Cl)cc2=O)cc1`, with -0.006% (inactive). Still for that read-out and setting: then `Oc1ccc(Cl)cc1C=Nc1ccc2c3c(cccc13)CC2`, with 0.216% (inactive); and `O=C(OCc1cccc(F)c1)c1ccc2c(=O)n3c(nc2c1)CCC3`, with 0.065% (inactive); and `COc1ccccc1N(C)c1cc2c(c3c1ccn3C)C1CCC2C1` (stereo unspecified), with 0.033% (inactive). As to `CCCN1CCN(C(=O)C2CCN(c3nnc(C)c4c(C)n(-c5ccc(C)cc5)nc34)CC2)CC1`, the % fluorescent cells increase was 0.895% (inactive). On the same count and under the same terms, in the case of `COc1ccccc1/C=C/C(=O)OCCCN(C)C` it was 0% (inactive).

`Cc1onc(-c2c(Cl)cccc2Cl)c1-c1nc2cc(Cl)ccc2c(=O)o1`: the % fluorescent cells increase is -0.011% (inactive). `C/C(=N\NC(=O)c1ccccc1Cl)c1ccccn1`: the % fluorescent cells increase is 0% (inactive). Still for that read-out and setting: then `C/C=C/c1ccc(C2[C@H]3CNC[C@@H]2N3Cc2cc(-c3ccccc3)on2)cc1` (stereo partly specified), with -0.166% (inactive); and `Cc1ccc(C(=O)NCc2ccccn2)cc1NC1=NC2CS(=O)(=O)CC2S1` (stereo unspecified), with 0.061% (inactive); and `Cc1cccc(-c2ccc([C@@H]3[C@@H](CO)N4CCCCN(S(=O)(=O)c5ccccc5F)C[C@H]34)cc2)c1`, with 8.13% (inactive).

As for `CO[C@H]1CN(C)C(=O)c2ccc(NC(=O)C3CCCCC3)cc2OC[C@H](C)NC[C@@H]1C`, the % fluorescent cells increase was 0.009% (inactive). On the same count and under the same terms, in the case of `Cc1cccc(-c2ccc([C@H]3[C@H](CO)N4CCCCN(C(=O)NC(C)C)C[C@@H]34)cc2)c1` it was -0.166% (inactive). Same read-out and setting: in the case of `COc1ccc(NC(=O)C(C)N2C(=O)c3ccccc3C2=O)c(OC)c1` (stereo unspecified) it was 0.081% (inactive); in that of `COc1ccc(NC(=O)CCc2ccccc2)cc1S(=O)(=O)N1CCCCC1`, 0.183% (inactive); in that of `CC(Sc1nnc(Cc2ccccc2)o1)C(=O)Nc1ccccc1[N+](=O)[O-]` (stereo unspecified), -0.011% (inactive).

As for `O=C(NCCOc1ccccc1)c1cc([N+](=O)[O-])ccc1N1CCOCC1`, the % fluorescent cells increase was 0.343% (inactive). Regarding `CCOC(=O)C1(Cc2ccccc2C)CCCN(C(=O)CSC)C1` (stereo unspecified), the % fluorescent cells increase is 0% (inactive). Still for that read-out and setting: then `O=C(c1ccc(S(=O)(=O)c2ccc(Cl)cc2)cc1)N1CCOCC1`, with 0.948% (inactive); and `COc1cccc2cc(C(=O)N(Cc3cccs3)CC3CCCO3)c(=O)oc12` (stereo unspecified), with 0.013% (inactive). Same read-out and setting: in the case of `COc1ccc(N2CCN(C(CNC(=O)c3ccc4c(c3)OCO4)c3ccco3)CC2)cc1` (stereo unspecified) it was 0% (inactive); in that of `O=C(Nc1ccccc1N1CCCCC1)c1cnccn1`, 0.039% (inactive). On the same count and under the same terms, then `COC(=O)c1c(NC(=O)c2ccccc2)sc2c1CC(C)(C)NC2(C)C`, with -0.011% (inactive); and `CC1Oc2ccccc2C=C1/C=N\NC(=O)c1cccnc1` (stereo unspecified), with 0% (inactive). Consider `COc1ccc(NC(=O)C(=O)NCCC2CCCCN2S(=O)(=O)c2cccs2)cc1` (stereo unspecified), for which the % fluorescent cells increase is 2.33% (inactive). On to `COc1ccccc1NC(=O)N[C@H]1C=C[C@@H](CC(=O)N[C@@H](C)c2ccccc2)O[C@@H]1CO`, for which the % fluorescent cells increase was 0.342% (inactive). On the same count and under the same terms, in the case of `Cc1ccccc1NC(=O)CN1C(=O)S/C(=C\c2ccc(-c3cc(C(=O)O)ccc3C)o2)C1=O` it was 0% (inactive); in that of `O=C(Nc1c(F)cccc1F)C(c1ccccc1)c1ccccc1`, 0.034% (inactive). Still for that read-out and setting: then `CCc1ccc(N2CC(C(=O)Nc3cc(C)on3)CC2=O)cc1` (stereo unspecified), with 0.015% (inactive); and `COc1cccc(CNC(=O)c2cc(S(=O)(=O)N3CCOCC3)cn2C)c1`, with 0.274% (inactive); and `Cc1cc(=O)[nH]c(N/N=C/c2cc(C)n(-c3ccccc3)c2C)n1`, with 0% (inactive). On the same count and under the same terms, then `NNc1nc2c(-c3ccc(F)cc3)nnn2c2ccccc12`, with 0.008% (inactive).

As for `C[C@H](CO)N1C[C@H](C)[C@H](CN(C)C(=O)Nc2ccc(F)cc2)Oc2ncc(C#Cc3cccc(F)c3)cc2C1=O`, the % fluorescent cells increase was -0.166% (inactive). Turning to `O=C1CCCC(O)=C1Sc1cc(Cl)c(Cl)cc1Cl`, the % fluorescent cells increase was 0% (inactive). Still for that read-out and setting: then `Cc1cccn2c(=O)c3cc(C(=O)NCc4ccc(F)cc4)c(=N)n(CCCN4CCOCC4)c3nc12`, with 0% (inactive); and `CCOC(=O)c1sc(Nc2ccc(Br)cc2)nc1C`, with 1.37% (inactive); and `COc1cc(/C=C/c2ccc3cccc(O)c3n2)c(Br)cc1O`, with 0% (inactive). On the same count and under the same terms, in the case of `CC(C)OC(=O)/C(=C\c1cccnc1)NC(=O)c1ccccc1` it was 0.013% (inactive); in that of `COc1ccccc1OCCOc1ccc(/C=C2\C(=N)N3N=C(S(C)(=O)=O)SC3=NC2=O)cc1`, 0% (inactive); in that of `COc1ccccc1CNC(=O)COC(=O)COc1ccccc1F`, 1.84% (inactive). For the compound `CC(C)(C)N(Cc1ccccc1)C(=O)COC(=O)c1ccc(N2CCCC2=O)cc1`, the % fluorescent cells increase was -0.007% (inactive). Same read-out and setting: then `Cc1ccc(S(=O)(=O)Nc2cccc3c2O[C@H](CN(C)C(=O)Nc2cccc4ccccc24)[C@H](C)CN([C@H](C)CO)C3=O)cc1`, with 0.048% (inactive). Still for that read-out and setting: in the case of `O=C(O)c1ccccc1C1Nc2ccccc2C(=O)N1CCCN1CCOCC1` (stereo unspecified) it was -0.004% (inactive); in that of `O=CNc1ccc2c(c1)Cc1cc([N+](=O)[O-])ccc1-2`, 0.119% (inactive). Still for that read-out and setting: then `O=C(NCc1ccccc1)c1ccccc1Br`, with 3.38% (inactive); and `COc1ccc2c3c([nH]c2c1)[C@H](CO)N(C(=O)Nc1ccc(F)cc1)CC31CN(CC2CC2)C1`, with 0.116% (inactive); and `CCOC(=O)Nc1ccc2nc(-c3cscn3)[nH]c2c1`, with 0.274% (inactive).

For the compound `CCOc1ccc(C(Nc2cccnc2)c2cc(Cl)c3cccnc3c2O)cc1` (stereo unspecified), the % fluorescent cells increase was 0% (inactive). The same measure, in the same setting: in the case of `Cc1cc(C(=O)Nc2ccc(Cl)c(S(=O)(=O)N3CCOCC3)c2)c2ccccc2n1` it was 0.116% (inactive); in that of `Cn1c(=N)n(CC(=O)c2ccccc2)c2ccccc21`, 0% (inactive). Consider `COc1ccc(C2=C(c3ccccc3)OC(OC)c3cc(F)ccc32)cn1` (stereo unspecified), for which the % fluorescent cells increase is 0.033% (inactive). As for `O=C1c2ccccc2C(=Cc2cccnc2)c2ccccc21`, the % fluorescent cells increase is 0.125% (inactive).

In the case of `COc1ccc2c(c1)C(C)=CC(C)(C)N2S(=O)(=O)c1ccc(Br)cc1`, the % fluorescent cells increase was 0% (inactive). Same read-out and setting: in the case of `CCCN(C)C[C@@H]1OCc2cnnn2CCCC(=O)N([C@H](C)CO)C[C@H]1C` it was 0.007% (inactive); in that of `CC(=O)Nc1sc(N/N=C/c2ccc(N(C)C)cc2)nc1-c1ccc(C)cc1`, -0.004% (inactive). Same read-out and setting: in the case of `COCCNC(=S)N(Cc1cccnc1)Cc1ccc(OC)c(OC)c1` it was 1.33% (inactive). As for `CCOC(=O)[C@]12CCC=C1N(Cc1ccccc1)C(=O)[C@H](CC(=O)N1CCSCC1)C2`, the % fluorescent cells increase is 0.038% (inactive). On the same count and under the same terms, in the case of `CN(C)CCCNC(=O)/C(=C\c1ccc(-c2ccc(Br)cc2)o1)NC(=O)c1ccccc1` it was -0.006% (inactive); in that of `CC(=O)N[C@@H](CC(=O)O)C(=O)O`, 0.642% (inactive).

Take `Cc1cc(C(=O)NCc2cc(F)cc3c2OCOC3)nn1C`: the % fluorescent cells increase is -0.003% (inactive).

Still in this test, the particulars now being: mTEFS fibroblasts autofluorescence, GFP-channel imaging, 3 days; at 21 µM (top of the series); cells pretreated with 5-aza-dC.
As for `Cc1ccc(-c2ccccc2[C@@H]2[C@H](C#N)N(S(C)(=O)=O)[C@H]2CO)cc1`, the % fluorescent cells increase was -0.036% (inactive).
